Source: publication PMC10233829 (ACS Omega, 2023)
≈ marks a conversion by molar mass, not a printed value.

What was measured:
S. aureus NCTC 4163 = test: MIC, twofold microdilution, standard strain; type: cell-based; conditions: Staphylococcus aureus, NCTC4163, 18 h
S. aureus ATCC 25923 = test: MIC, twofold microdilution, standard strain; type: cell-based; conditions: Staphylococcus aureus, ATCC25923, 18 h
S. aureus ATCC 6538 = test: MIC, twofold microdilution, standard strain; type: cell-based, Staphylococcus aureus; conditions: Staphylococcus aureus, ATCC6538; standard strain, 18 h
S. aureus ATCC 29213 = test: MIC, twofold microdilution, standard strain; type: cell-based; conditions: Staphylococcus aureus, ATCC29213, 18 h
[1] = system: S. epidermidis ATCC 12228; test: MIC, twofold microdilution, standard strain; type: cell-based; conditions: Staphylococcus epidermidis, ATCC12228, 18 h
[2] = system: S. epidermidis ATCC 35984; test: MIC, twofold microdilution, standard strain; type: cell-based; conditions: Staphylococcus epidermidis, ATCC35984, 18 h
P. aeruginosa ATCC 15442 = test: MIC, twofold microdilution, standard strain; type: cell-based, Pseudomonas aeruginosa; conditions: Pseudomonas aeruginosa, ATCC15442; standard strain, 18 h
E. coli ATCC 25922 = test: MIC, twofold microdilution, standard strain; type: cell-based, Escherichia coli; conditions: Escherichia coli, ATCC25922; standard strain, 18 h
S. aureus 180 = test: MIC, twofold microdilution, clinical strain; type: cell-based; conditions: Staphylococcus aureus, 18 h
S. aureus 5595 = test: MIC, twofold microdilution, clinical strain; type: cell-based; conditions: Staphylococcus aureus, 18 h
S. aureus T5595 = test: MIC, twofold microdilution, clinical strain; type: cell-based, Staphylococcus aureus; conditions: Staphylococcus aureus, T5595, 18 h
S. aureus T5591 = test: MIC, twofold microdilution, clinical strain; type: cell-based, Staphylococcus aureus; conditions: Staphylococcus aureus, T5591, 18 h
S. epidermidis 4341 = test: MIC, twofold microdilution, clinical strain; type: cell-based; conditions: Staphylococcus epidermidis, 18 h
S. epidermidis 5253 = test: MIC, twofold microdilution, clinical strain; type: cell-based, Staphylococcus epidermidis; conditions: Staphylococcus epidermidis, 5253, 18 h
S. epidermidis KR4243/1 = test: MIC, twofold microdilution, clinical strain; type: cell-based; conditions: Staphylococcus epidermidis, 18 h
S. pasteuri KR 4358 = test: MIC, twofold microdilution, clinical strain; type: cell-based; conditions: Staphylococcus pasteuri, KR4358, 18 h
P. aeruginosa 37 = test: MIC, twofold microdilution, clinical strain; type: cell-based; conditions: Pseudomonas aeruginosa, 18 h
P. aeruginosa 659 = test: MIC, twofold microdilution, clinical strain; type: cell-based; conditions: Pseudomonas aeruginosa, 18 h
E. coli 951 = test: MIC, twofold microdilution, clinical strain; type: cell-based; conditions: Escherichia coli, 18 h
E. coli 520 = test: MIC, twofold microdilution, clinical strain; type: cell-based; conditions: Escherichia coli, 18 h
E. coli 600 = test: MIC, twofold microdilution, clinical strain; type: cell-based, Escherichia coli; conditions: Escherichia coli, 600, 18 h
E. cloacae 8 = test: MIC, twofold microdilution, clinical strain; type: cell-based, Escherichia cloacae; conditions: Enterobacter cloacae, 8; clinical strain, 18 h
K. pneumoniae 28 = test: MIC, twofold microdilution, clinical strain; type: cell-based; conditions: Klebsiella pneumoniae, 18 h
K. pneumoniae 510 = test: MIC, twofold microdilution, clinical strain; type: cell-based, Klebsiella pneumoniae; conditions: Klebsiella pneumoniae, 510; clinical strain, 18 h
M. tuberculosis H37Rv = test: Tuberculostatic activity, Microplate Alamar Blue Assay (MIC); type: cell-based, Mycobacterium tuberculosis; conditions: Mycobacterium tuberculosis, H37RV; MABA; read-out: MIC M. tuberculosis H37Rv
[3] = system: M. tuberculosis Spec. 192; test: as above; type: cell-based; conditions: Mycobacterium tuberculosis, MABA, read-out: MIC M. tuberculosis Spec. 192 (sensitive to tuberculostatics)
M. tuberculosis Spec 210 = test: microbe, parasite or virus in culture; type: cell-based, Mycobacterium tuberculosis; conditions: M. tuberculosis Spec. 210
PC3 cells = test: MTT assay, cytotoxic activity; type: cell-based, human; conditions: Homo sapiens, PC-3, 72 h, MTT, 72 h
Description: Metastatic prostate cancer (PC3) and human immortal keratinocyte (HaCaT) cell lines were purchased from the American Type Culture Collection (ATCC, Rockville, MD, USA) and cultured in MEM (minimal essential medium, Thermo Sci, USA), RPMI 1640 (Roswell Park Memorial Institute, Biowest SAS, France), and DMEM (Dulbecco’s Modified Eagle’s Medium, Biowest SAS, France). Cells were seeded in 6 mL medium in a tissue culture flask (50 mL) in a 37 °C/5% CO2 humidified incubator. […] MTT analysis was performed according to a previous study.[59] Untreated cells were used as controls. Cell absorbance results were inserted into the formula for the relative MTT level (%). It allows to calculate the viability of cells under the influence of the tested compounds. Cell viability was expressed as the percentage of MTT reduction in cells treated with tested compounds compared to the control sample. The relative MTT level was calculated using the formula [100%] = A/B × 100% where A—the test sample absorbance and B—the control sample absorbance.

[4] = MTT assay, cytotoxic activity; type: cell-based; conditions: human, HaCaT cells (immortal keratinocytes); MTT, 72 h, normal cell line; read-out: IC50 HaCaT
Description: Cells were seeded in 6 mL medium in a tissue culture flask (50 mL) in a 37 °C/5% CO2 humidified incubator. […] MTT analysis was performed according to a previous study.[59] Untreated cells were used as controls. Cell absorbance results were inserted into the formula for the relative MTT level (%). It allows to calculate the viability of cells under the influence of the tested compounds. Cell viability was expressed as the percentage of MTT reduction in cells treated with tested compounds compared to the control sample. The relative MTT level was calculated using the formula [100%] = A/B × 100% where A—the test sample absorbance and B—the control sample absorbance.

[5] = system: Staphylococci (standard strains); test: MIC, standard Gram-positive strains as a panel; type: cell-based, S. aureus, S. epidermidis; conditions: standard Gram-positive strains of Table 1; read-out: MIC toward standard Staphylococci (range over strains)
[6] = system: P. aeruginosa ATCC 15442 and E. coli ATCC 25922; test: MIC, standard Gram-negative rods as a panel; type: cell-based; conditions: P. aeruginosa ATCC 15442, E. coli ATCC 25922; read-out: MIC against standard Gram-negative rods (range over strains)
[7] = system: clinical bacterial strains; test: MIC, clinical isolates as groups of strains; type: cell-based; conditions: S. aureus T5595 and T5591

| Compound | MIC (S. aureus NCTC 4163) [µg/mL] | MIC (S. aureus ATCC 25923) [µg/mL] | MIC (S. aureus ATCC 6538) [µg/mL] | MIC (S. aureus ATCC 29213) [µg/mL] | MIC [1] [µg/mL] | MIC [2] [µg/mL] | MIC (P. aeruginosa ATCC 15442) [µg/mL] | MIC (E. coli ATCC 25922) [µg/mL] | MIC (S. aureus 180) [µg/mL] | MIC (S. aureus 5595) [µg/mL] | MIC (S. aureus T5595) [µg/mL] | MIC (S. aureus T5591) [µg/mL] | MIC (S. epidermidis 4341) [µg/mL] | MIC (S. epidermidis 5253) [µg/mL] | MIC (S. epidermidis KR4243/1) [µg/mL] | MIC (S. pasteuri KR 4358) [µg/mL] | MIC (P. aeruginosa 37) [µg/mL] | MIC (P. aeruginosa 659) [µg/mL] | MIC (E. coli 951) [µg/mL] | MIC (E. coli 520) [µg/mL] | further results |
| --- | --- | --- | --- | --- | --- | --- | --- | --- | --- | --- | --- | --- | --- | --- | --- | --- | --- | --- | --- | --- | --- |
| O=C(O)c1cn(C2CC2)c2cc(N3CCN(C(=O)CCCCCCCCCCBr)CC3)c(F)cc2c1=O [Compound 13, 7-[4-(11-Bromoundekanoyl)-piperazin-1-yl]-1-cyclopropyl-6-fluoro-4-oxo-1,4-dihydro-quinoline-3-carboxylic Acid] | 6.4 (≈ 11.1 µM) | 12.8 (≈ 22.1 µM) | 12.8 (≈ 22.1 µM) | 12.8 (≈ 22.1 µM) | 12.8 (≈ 22.1 µM) | 12.8 (≈ 22.1 µM) | > 25.6 | 25.6 (≈ 44.3 µM) | > 25.6 | > 25.6 | > 25.6 | > 25.6 | > 25.6 | > 25.6 | > 25.6 | > 25.6 | > 25.6 | > 25.6 | > 25.6 | > 25.6 | MIC (E. coli 600): > 25.6 µg/mL; MIC (E. cloacae 8): > 25.6 µg/mL; MIC (K. pneumoniae 28): > 25.6 µg/mL; MIC (K. pneumoniae 510): > 25.6 µg/mL; MIC (M. tuberculosis H37Rv): 2 µg/mL (≈ 3.46 µM); MIC [3]: 4 µg/mL (≈ 6.91 µM); fold more effective than the reference tuberculostatics (M. tuberculosis Spec 210): 8–32 fold; IC50 (PC3 cells): 33.7 ± 8.2 µM; IC50 at 72 h [4]: 93.4 ± 10.1 µM |
| O=C(O)c1cn(C2CC2)c2cc(N3CCN(C(=O)CCCCCCl)CC3)c(F)cc2c1=O [Compound 7, 7-[4-(6-Chlorohexanoyl)-piperazin-1-yl]-1-cyclopropyl-6-fluoro-4-oxo-1,4-dihydro-quinoline-3-carboxylic Acid] | 0.2 (≈ 0.431 µM) | 0.2 (≈ 0.431 µM) | 0.2 (≈ 0.431 µM) | 0.2 (≈ 0.431 µM) | 0.4 (≈ 0.862 µM) | 0.2 (≈ 0.431 µM) | 12.8 (≈ 27.6 µM) | 0.8 (≈ 1.72 µM) | 0.5 (≈ 1.08 µM) | 0.5 (≈ 1.08 µM) | 0.4 (≈ 0.862 µM) | 0.4 (≈ 0.862 µM) | 25.6 (≈ 55.2 µM) | > 25.6 | 0.2 (≈ 0.431 µM) | 0.2 (≈ 0.431 µM) | > 25.6 | > 25.6 | > 25.6 | 6.4 (≈ 13.8 µM) | MIC (E. coli 600): 6.4 µg/mL (≈ 13.8 µM); MIC (E. cloacae 8): 16 µg/mL (≈ 34.5 µM); MIC (K. pneumoniae 28): > 25.6 µg/mL; MIC (K. pneumoniae 510): > 25.6 µg/mL; MIC (M. tuberculosis H37Rv): 0.5 µg/mL (≈ 1.08 µM); MIC [3]: 0.5 µg/mL (≈ 1.08 µM); IC50 (PC3 cells): > 100 µM; IC50 at 72 h [4]: > 100 µM; MIC [5]: 0.1 to 0.8 µg/mL (≈ 0.216 to 1.72 µM); MIC [6]: ≤ 1 µg/mL; share of the reference (CP) activity [7]: 62.5% |
